The text below walks through data of US10583092B2, “Therapeutic nanoparticles comprising a protonatable nitrogen therapeutic agent and methods of making and using same” (Pfizer Inc., priority 2014, dated 2020).

The nature of this data set: Solubility of dasatinib in solvents, quantified using HPLC. Format: physicochemical. The note with it: benzyl alcohol doped with oleic acid versus benzyl alcohol. From the text:
The solubility of dasatinib in benzyl alcohol, ethyl acetate, and mixtures of oleic acid and benzyl alcohol were quantified using HPLC.

For `Cc1nc(Nc2ncc(C(=O)Nc3c(C)cccc3Cl)s2)cc(N2CCN(CCO)CC2)n1` [dasatinib], the improvement of solubility is listed as 2-3 fold.
